Among the test systems are OVCAR-5 ovarian; HS 578T breast; BT-549 breast; RXF 393 renal; NCI-H226 lung; UACC-257 melanoma; SK-MEL-5 melanoma; HT29 colon; TK-10 renal; NCI-H460 lung.
Assay in all cases: NCI anticancer screen, dose series, 48 h

This passage reports GI50 and TGI results from PubChem BioAssay (NCI).

Several values for one entry are separate records, joined by “and”; a condition that tells them apart may be missing. Equal entries are not always repeated.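 How tested: cells in 96-well plates exposed to compound for 48 hours at five concentrations. Abbreviation: GI50, concentration required for 50% inhibition of growth. TGI marks complete inhibition of growth.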

Consider `O=C1/C=C/[C@@H](O)[C@@H]2C[C@@H](O)C[C@H]2/C=C/CCC[C@H](C(F)(F)F)O1`, for which the GI50 in the assay on OVCAR-5 ovarian is 933 nM; in the assay on HS 578T breast, 347 nM; with BT-549 breast, 211 nM; with RXF 393 renal it was 86.4 nM; in the assay with NCI-H226 lung, 68.7 nM; in the assay on UACC-257 melanoma it was 53 nM. The GI50 in the assay on SK-MEL-5 melanoma is 128 nM; in the assay with HT29 colon it was 67.8 nM; in the assay with TK-10 renal, 88.8 nM; with NCI-H460 lung, 9540 nM. For the same compound, the TGI is 24.7 µM in the assay on OVCAR-5 ovarian; above 100 µM in the assay with HS 578T breast; 10.8 µM in the assay with BT-549 breast; 38.7 µM in the assay on RXF 393 renal; 0.68 µM in the assay on NCI-H226 lung; 1.01 µM in the assay with UACC-257 melanoma. For the same compound, the TGI with SK-MEL-5 melanoma is 0.32 µM; in the assay with HT29 colon it was 0.38 µM; in the assay with TK-10 renal, 0.78 µM; in the assay on NCI-H460 lung, above 100 µM.
As to `CCCCCCCCCCCC[n+]1ccc2ccccc2c1`, the GI50 is 1340 nM in the assay with OVCAR-5 ovarian; 1540 nM in the assay on HS 578T breast; 907 nM in the assay on BT-549 breast; 1360 nM in the assay on RXF 393 renal; 1100 nM in the assay with NCI-H226 lung; 405 nM in the assay on UACC-257 melanoma. The GI50 with SK-MEL-5 melanoma was 317 nM; with HT29 colon, 419 nM; in the assay with TK-10 renal it was 1170 nM; in the assay on NCI-H460 lung, 1690 nM. Also, the TGI amounted to 3.74 µM with OVCAR-5 ovarian; 3.88 µM in the assay with HS 578T breast; 2.49 µM in the assay on BT-549 breast; 2.88 µM in the assay on RXF 393 renal; 3.85 µM in the assay with NCI-H226 lung; 1.82 µM with UACC-257 melanoma. For the same compound, the TGI in the assay with SK-MEL-5 melanoma is 1.28 µM; in the assay with HT29 colon, 2.14 µM; in the assay on TK-10 renal it was 2.57 µM; with NCI-H460 lung, 3.27 µM.
On to `C=C1C(=O)OC2/C=C(/C)C(OC(C)=O)C/C=C(\C)C(OC(=O)C3(C)OC3C)C(O)C12` (stereo not given), for which the TGI in the assay on OVCAR-5 ovarian, in the assay with HS 578T breast, with BT-549 breast, in the assay on RXF 393 renal, with NCI-H226 lung and in the assay on UACC-257 melanoma was above 100 µM throughout. Also, the TGI with SK-MEL-5 melanoma, with HT29 colon, with TK-10 renal and with NCI-H460 lung was above 100 µM each time.
As for `CN(C)CCNC(=O)c1cccc2c1Oc1c(cccc1[N+](=O)[O-])O2`, the TGI in the assay with OVCAR-5 ovarian amounted to 8.14 µM; in the assay on HS 578T breast, 6.71 µM; in the assay on BT-549 breast, 4.66 µM; in the assay with RXF 393 renal it was 4.94 µM; in the assay with NCI-H226 lung, 0.92 µM; with UACC-257 melanoma it was 6.34 µM. The TGI with SK-MEL-5 melanoma is 3.24 µM; in the assay with HT29 colon, 5.78 µM; with TK-10 renal it was 6.08 µM; in the assay with NCI-H460 lung, 2.66 µM.
As for `Nc1ncnc2c1ncn2C1OC(CO)C(O)C1N` (stereo not given), the TGI with OVCAR-5 ovarian, in the assay with HS 578T breast, in the assay on BT-549 breast, with RXF 393 renal, in the assay with NCI-H226 lung and in the assay with UACC-257 melanoma was above 100 µM throughout. Moreover, the TGI with SK-MEL-5 melanoma, with HT29 colon, with TK-10 renal and in the assay on NCI-H460 lung was above 100 µM throughout.
In the case of `CCCCCCCCCCCCCC[C@@H](O)[C@H]1CC[C@H]([C@H]2CC[C@H]([C@H](O)CCCCCC[C@@H](O)CC3=C[C@H](C)OC3=O)O2)O1`, the GI50 in the assay on OVCAR-5 ovarian is 4610 nM; in the assay with HS 578T breast, above 25000 nM; in the assay with BT-549 breast, 1880 nM; in the assay with RXF 393 renal it was 2720 nM; in the assay on NCI-H226 lung it was 1710 nM; with UACC-257 melanoma, 1620 nM. In addition, the GI50 was 717 nM with SK-MEL-5 melanoma, above 25000 nM in the assay with HT29 colon, 2720 nM in the assay with TK-10 renal and 21.4 nM with NCI-H460 lung. Also, the TGI was above 25 µM in the assay with OVCAR-5 ovarian; 3.15 µM and > 25 µM in the assay on HS 578T breast; 4.86 µM and > 25 µM in the assay on BT-549 breast; above 25 µM in the assay with RXF 393 renal; 5.04 µM and > 25 µM in the assay on NCI-H226 lung; 6.01 µM and > 25 µM with UACC-257 melanoma. Further, the TGI in the assay with SK-MEL-5 melanoma was 2.52 µM and > 25 µM; with HT29 colon, 3.3 µM and > 25 µM; in the assay with TK-10 renal, 8.15 µM and > 25 µM; in the assay with NCI-H460 lung it was 4.26 µM and > 25 µM.
Take `COc1cc2c3c(n(C)c(=O)c2cc1OC)-c1ccc(C#N)cc1C3=O`: the GI50 with OVCAR-5 ovarian, in the assay on HS 578T breast, in the assay on BT-549 breast, with RXF 393 renal, with NCI-H226 lung and in the assay on UACC-257 melanoma was above 100000 nM in each case. The GI50 with SK-MEL-5 melanoma, in the assay with HT29 colon, in the assay with TK-10 renal and in the assay with NCI-H460 lung was above 100000 nM throughout. The TGI with OVCAR-5 ovarian, in the assay on HS 578T breast, with BT-549 breast, in the assay with RXF 393 renal, in the assay on NCI-H226 lung and in the assay on UACC-257 melanoma was above 100 µM in each case. The TGI in the assay on SK-MEL-5 melanoma, in the assay on HT29 colon, in the assay on TK-10 renal and in the assay on NCI-H460 lung was above 100 µM in each case.
Turning to `COc1cc(-c2nn(-c3cccc(NC(=O)c4ccc(Cl)c(C(F)(F)F)c4)c3)cc2-c2ccncc2)ccc1Cl`, the GI50 in the assay with OVCAR-5 ovarian was above 28400 nM; with HS 578T breast, 1780 nM; in the assay on BT-549 breast it was 4350 nM; with RXF 393 renal, 2010 nM; in the assay with NCI-H226 lung, 7830 nM; in the assay with UACC-257 melanoma, 3600 nM. Further, the GI50 in the assay on SK-MEL-5 melanoma is 1130 nM; in the assay on HT29 colon, 3330 nM; in the assay with TK-10 renal, 12900 nM; with NCI-H460 lung it was 2210 nM. In addition, the TGI in the assay with OVCAR-5 ovarian was above 32.5 µM; with HS 578T breast, above 29.5 µM; with BT-549 breast, above 32.5 µM; in the assay on RXF 393 renal it was above 24.6 µM; in the assay on NCI-H226 lung, above 32.5 µM; in the assay with UACC-257 melanoma, above 32.5 µM. Moreover, the TGI in the assay on SK-MEL-5 melanoma is 8.69 µM; in the assay on HT29 colon, above 26.1 µM; in the assay on TK-10 renal, above 32.5 µM; with NCI-H460 lung it was above 32.5 µM.
